Converted amounts (≈) assume the structure as drawn. Structures can show the parent of a compound that is named as a salt.
How the values were obtained:
[1] = test system: anaesthetized mongrel dogs; experiment: Haemodynamic activities in anaesthetized dogs; assay type: in vivo; parameters: key to Flow coronary / Flow femoral / Contractive power of heart: +++: intense increase; ++: moderate increase; +: faint increase; =: no change; conditions: intravenous; for Arterial pressure Average variation carotid / Arterial pressure Average variation femoral / Contractive power of heart / Flow coronary / Flow femoral: one twentieth of the LD50: cuanzine HCl 8, hydrazide bitartrate 10, 21-epicuanzine HCl 5, apocuanzine HCl 2.5, dimethylaminoethyl ester 10 mg/kg
Protocol: The products under investigation were administered intravenously to anaesthetized mongrel dogs in doses which were in proportion to the lethal dose (one twentieth of the LD50).
The average of the carotid and femoral arterial pressures, the […] coronary and femoral flow rates and the contractive power of the heart were measured and the results are shown in Table I.

[2] = test system: isolated ileum of guinea pigs; experiment: Spasmolytic activity on the isolated ileum of guinea pigs (acetylcholine-induced spasm); conditions: limits in parentheses, contact time spasmogenic 1 min, spasmolytic 3 min, interval between administrations 5 min; for IC50: Cavia porcellus, 0.05 h, read-out: ED50 and base limits on spasm induced by 100 mg/ml of acetylcholine
Protocol: (1) (1) induced by 100 mg/ml of acetylcholine
(1) The time of contact of the spasmogenic and spasmolytic substances was
1 and 3 minutes, respectively.
The interval between the administrations was 5 minutes.

Molecule	Arterial pressure Average variation carotid [1] [mm Hg]	Arterial pressure Average variation femoral [1] [mm Hg]	Contractive power of heart [1]	Flow coronary [1]	Flow femoral [1]	IC50 [2] [µg/mL]	ED50 and base limits on spasm induced by 100 mg/ml of acetylcholine [2]	haemodynamic activity compared with cuanzine (in words) ([1]; anaesthetized dogs, one twentieth of the LD50)
COC(=O)C1=C[C@]23CCO[C@H]2CCN2CCc4c(n1c1c(OC)cccc41)[C@@H]23 [Apocuanzine hydrochloride, Apocuanzine]	-15	-15	+	+++	+	–	–	–
COC(=O)[C@]1(O)C[C@]23CCO[C@H]2CCN2CCc4c(n1c1c(OC)cccc41)[C@@H]23 [Cuanzine hydrochloride, reference compound]	-10	-10	=	++	+	120	–	–
21-epicuanzine	–	–	–	–	–	–	37 (68.8 - 19.9) γ/ml	–
COC(=O)C1=C[C@]23CCO[C@H]2CCN2CCc4c(n1c1c(OC)cccc41)[C@@H]23 [Apocuanzine]	–	–	–	–	–	26.5 (≈ 69.7 µM)	–	–
COc1cccc2c3c4n(c12)[C@](O)(C(=O)OCCN(C)C)C[C@]12CCO[C@H]1CCN(CC3)[C@H]42 [N,N-dimethylaminoethyl nor-cuanzinate]	-10	-10	=	++	+	–	–	as active as cuanzine
COC(=O)[C@]1(O)C[C@]23CCO[C@H]2CCN2CCc4c(n1c1c(OC)cccc41)[C@H]23 [21-epicuanzine hydrochloride, 21-Epicuanzine (A=β-H,B = CO2 Me, C=OH,D=H) hydrochloride]	-20	-20	=	++	+	–	–	–
COc1cccc2c3c([nH]c12)[C@H]1N(CC3)CC[C@@H]2OCC[C@@]21CC(=NN)C(=O)NN [Cuanzine hydrazide bitartrate]	-30	-30	+	+++	++	74	–	–
